According to patent publication US9908912B2, “Triclosan derivatives and uses thereof” (priority 2012, dated 2018):
≈ marks a conversion by molar mass, not a printed value.

Legend:
Staph. aureus = experiment: MIC in Nutrient Broth No. 2; assay type: cell-based, Staphylococcus aureus; conditions: Staphylococcus aureus; 8 strains; Nutrient Broth No. 2, 24 h, 37° C.; inducer not specified; read-out: MIC
Method: (§1) Bacteria species as indicated in Table 1 were incubated for approximately 24 hours at 37° C.
(§2) The tests were repeated with the addition of inducers. Methyl glycoside was the main inducer used, but other suitable inducers include isopropyl-β-D-thiogalactopyranoside, p-nitrophenyl-α-L-arabinopyranoside and p-nitrophenyl-β-D-xylopyranoside. Concentration of inducer in all cases was 100 μg/ml.

[1] = system: Strep. pyogenes ATCC 19615; experiment: MIC in Nutrient Broth No. 2; assay type: cell-based, Streptococcus pyogenes; conditions: Streptococcus pyogenes, ATCC19615; Nutrient Broth No. 2, 24 h, 37° C.; inducer not specified; read-out: MIC
Method: as §1, §2

[2] = system: Ps. Aeruginosa ATCC 27853; experiment: MIC in Nutrient Broth No. 2; assay type: cell-based; conditions: Pseudomonas aeruginosa, ATCC27853; Nutrient Broth No. 2, 24 h, 37° C.; inducer not specified; read-out: MIC
Method: as §1, §2

[3] = system: Citrobacter freundii OCC 851; experiment: MIC in Nutrient Broth No. 2; assay type: cell-based; conditions: Citrobacter freundii, OCC851; Nutrient Broth No. 2, 24 h, 37° C.; inducer not specified; read-out: MIC
Method: as §1, §2

[4] = system: Proteus mirabilis ATCC 12453; experiment: MIC in Nutrient Broth No. 2; assay type: cell-based; conditions: Proteus mirabilis, ATCC12453; Nutrient Broth No. 2, 24 h, 37° C.; inducer not specified; read-out: MIC
Method: as §1, §2

Salmonella = experiment: MIC in Nutrient Broth No. 2; assay type: cell-based; conditions: Salmonella; 11 strains; Nutrient Broth No. 2, 24 h, 37° C.; inducer not specified; read-out: MIC
Method: as §1, §2

[5] = system: Enterococcus faecium ATCC 19434; experiment: MIC in Nutrient Broth No. 2; assay type: cell-based; conditions: Enterococcus faecium, ATCC19434; Nutrient Broth No. 2, 24 h, 37° C.; inducer not specified; read-out: MIC
Method: as §1, §2

Hafnia alvei ATCC 13337 = experiment: MIC in Nutrient Broth No. 2; assay type: cell-based; conditions: Hafnia alvei, ATCC13337; Nutrient Broth No. 2, 24 h, 37° C.; inducer not specified; read-out: MIC
Method: as §1, §2

Proteus vulgaris OCC 195 = experiment: MIC in Nutrient Broth No. 2; assay type: cell-based; conditions: Proteus vulgaris, OCC195; Nutrient Broth No. 2, 24 h, 37° C.; inducer not specified; read-out: MIC
Method: as §1, §2

[6] = system: Aeromonas hydrophila OCC 778; experiment: MIC in Nutrient Broth No. 2; assay type: cell-based; conditions: Aeromonas hydrophila, OCC778; Nutrient Broth No. 2, 24 h, 37° C.; inducer not specified; read-out: MIC
Method: as §1, §2

Escherichia coli = experiment: MIC in Nutrient Broth No. 2; assay type: cell-based; conditions: Escherichia coli; 8 strains; Nutrient Broth No. 2, 24 h, 37° C.; inducer not specified; read-out: MIC
Method: as §1, §2

[7] = system: Bacillus subtilis NCTC 10073; experiment: MIC in Nutrient Broth No. 2; assay type: cell-based; conditions: Bacillus subtilis, NCTC10073; Nutrient Broth No. 2, 24 h, 37° C.; inducer not specified; read-out: MIC
Method: as §1, §2

[8] = system: Serratia marcescens OCC 217; experiment: MIC in Nutrient Broth No. 2; assay type: cell-based; conditions: Serratia marcescens, OCC217; Nutrient Broth No. 2, 24 h, 37° C.; inducer not specified; read-out: MIC
Method: as §1, §2

[9] = system: Enterococcus faecalis ATCC 29212; experiment: MIC in Nutrient Broth No. 2; assay type: cell-based; conditions: Enterococcus faecalis, ATCC29212, 24 h
Method: as §1, §2

[10] = system: Bacillus cereus ATCC 14579; experiment: MIC in Nutrient Broth No. 2; assay type: cell-based; conditions: Bacillus cereus, ATCC14579; Nutrient Broth No. 2, 24 h, 37° C.; inducer not specified; read-out: MIC
Method: as §1, §2

[11] = system: Enterobacter aerogenes ATCC 13048; experiment: MIC in Nutrient Broth No. 2; assay type: cell-based; conditions: Klebsiella aerogenes, ATCC13048; Nutrient Broth No. 2, 24 h, 37° C.; inducer not specified; read-out: MIC
Method: as §1, §2

E. hermanii ATCC 33650 = experiment: MIC in Nutrient Broth No. 2; assay type: cell-based, Escherichia hermanii; conditions: Atlantibacter hermannii, ATCC33650; Nutrient Broth No. 2, 24 h, 37° C.; inducer not specified; read-out: MIC
Method: as §1, §2

[12] = system: Strep. pneumoniae ATCC 6305; experiment: MIC in Nutrient Broth No. 2; assay type: cell-based, Streptococcus pneumoniae; conditions: Streptococcus pneumoniae, ATCC6305; Nutrient Broth No. 2, 24 h, 37° C.; inducer not specified; read-out: MIC
Method: as §1, §2

[13] = system: Crono. sakazakii ATCC 29544; experiment: MIC in Nutrient Broth No. 2; assay type: cell-based, Cronobacter sakazakii; conditions: Cronobacter sakazakii, ATCC29544; Nutrient Broth No. 2, 24 h, 37° C.; inducer not specified; read-out: MIC
Method: as §1, §2

Staph. epidermidis = experiment: MIC in Nutrient Broth No. 2; assay type: cell-based, Staphylococcus epidermidis; conditions: Staphylococcus epidermidis; 3 strains; Nutrient Broth No. 2, 24 h, 37° C.; inducer not specified; read-out: MIC
Method: as §1, §2

Ent. cloacae ATCC 13047 = experiment: MIC in Nutrient Broth No. 2; assay type: cell-based, Enterobacter cloacae; conditions: Enterobacter cloacae, ATCC13047; Nutrient Broth No. 2, 24 h, 37° C.; inducer not specified; read-out: MIC
Method: as §1, §2

[14] = system: Bacteria species as indicated in Table 1; experiment: MIC in Nutrient Broth No. 2 (over organisms of Table 1); assay type: cell-based; conditions: Table 1 organisms
Method: as §1, §2

[15] = system: Staph. haemolyticus OCC 2223; experiment: MIC in Nutrient Broth No. 2; assay type: cell-based, Staphylococcus haemolyticus; conditions: Staphylococcus haemolyticus, OCC2223; Nutrient Broth No. 2, 24 h, 37° C.; inducer not specified; read-out: MIC
Method: as §1, §2

[16] = system: Strep. agalactiae OCC 182; experiment: MIC in Nutrient Broth No. 2; assay type: cell-based, Streptococcus agalactiae; conditions: Streptococcus agalactiae, OCC182; Nutrient Broth No. 2, 24 h, 37° C.; inducer not specified; read-out: MIC
Method: as §1, §2

[17] = system: Kleb. pneumoniae ATCC 10031; experiment: MIC in Nutrient Broth No. 2; assay type: cell-based, Klebsiella pneumoniae; conditions: Klebsiella pneumoniae, ATCC10031; Nutrient Broth No. 2, 24 h, 37° C.; inducer not specified; read-out: MIC
Method: as §1, §2

Strep. viridans OCC 234 = experiment: MIC in Nutrient Broth No. 2; assay type: cell-based, Streptococcus viridans; conditions: Streptococcus viridans, OCC234; Nutrient Broth No. 2, 24 h, 37° C.; inducer not specified; read-out: MIC
Method: as §1, §2

[18] = system: Kleb. aerogenes NCTC 88167; experiment: MIC in Nutrient Broth No. 2; assay type: cell-based, Klebsiella aerogenes; conditions: Klebsiella aerogenes, NCTC88167; Nutrient Broth No. 2, 24 h, 37° C.; inducer not specified; read-out: MIC
Method: as §1, §2

[19] = system: Staph. saprophyticus ATCC 15305; experiment: MIC in Nutrient Broth No. 2; assay type: cell-based, Staphylococcus saprophyticus; conditions: Staphylococcus saprophyticus, ATCC15305; Nutrient Broth No. 2, 24 h, 37° C.; inducer not specified; read-out: MIC
Method: as §1, §2

SMILES: Oc1cc(Cl)ccc1Oc1ccc(Cl)cc1Cl [Triclosan, 5-chloro-2-(2,4-dichlorophenoxy)phenol]
- MIC (Staph. aureus): 0.01 µg/mL (≈ 0.0345 µM)
- MIC [1]: 1 µg/mL (≈ 3.45 µM)
- MIC [2]: 32 µg/mL (≈ 111 µM)
- MIC [3]: 0.5 µg/mL (≈ 1.73 µM)
- MIC [4]: 0.5 µg/mL (≈ 1.73 µM)
- MIC (Salmonella): 0.5 to 1 µg/mL (≈ 1.73 to 3.45 µM)
- MIC [5]: 4 µg/mL (≈ 13.8 µM)
- MIC (Hafnia alvei ATCC 13337): 0.1 µg/mL (≈ 0.345 µM)
- MIC (Proteus vulgaris OCC 195): 0.5 µg/mL (≈ 1.73 µM)
- MIC [6]: 8 µg/mL (≈ 27.6 µM)
- MIC (Escherichia coli): 0.1 to 0.5 µg/mL (≈ 0.345 to 1.73 µM)
- MIC [7]: 1 µg/mL (≈ 3.45 µM)
- MIC [8]: 64 µg/mL (≈ 221 µM)
- MIC [9]: 8 µg/mL (≈ 27.6 µM)
- MIC [10]: 2 µg/mL (≈ 6.91 µM)
- MIC [11]: 0.5 µg/mL (≈ 1.73 µM)
- MIC (E. hermanii ATCC 33650): 0.5 µg/mL (≈ 1.73 µM)
- MIC [12]: 1 µg/mL (≈ 3.45 µM)
- MIC [13]: 0.5 µg/mL (≈ 1.73 µM)
- MIC (Staph. epidermidis): 0.01 µg/mL (≈ 0.0345 µM)
- MIC (Ent. cloacae ATCC 13047): 0.5 µg/mL (≈ 1.73 µM)
- susceptibility of the organisms that were tested [14]: inhibited
- MIC [15]: 0.01 µg/mL (≈ 0.0345 µM)
- MIC [16]: 4 µg/mL (≈ 13.8 µM)
- MIC [17]: 0.1 µg/mL (≈ 0.345 µM)
- MIC (Strep. viridans OCC 234): 4 µg/mL (≈ 13.8 µM)
- MIC [18]: 0.5 µg/mL (≈ 1.73 µM)
- MIC [19]: 0.01 µg/mL (≈ 0.0345 µM)
